Laboratory results from US8299077B2 (Roche Palo Alto LLC, priority 2009, dated 2012).

test system: not given; experiment: not given; conditions: not given

| melting point | SMILES |
| --- | --- |
| > 300 °C | CN1CC(Oc2ccc(Nc3cc(-c4cccc(-n5ncc6cc(C(C)(C)C)cc(F)c6c5=O)c4CO)cn(C)c3=O)nc2)C1 [Example 27, 6-tert-Butyl-8-fluoro-2-(2-hydroxymethyl-3-{1-methyl-5-[5-(1-methyl-azetidin-3-yloxy)-pyridin-2-ylamino]-6-oxo-1,6-dihydro-pyridin-3-yl}-phenyl)-2H-phthalazin-1-one] |
| 200 to 205 °C | Cn1cc(-c2cccc(-n3ncc4cc(C(C)(C)C)cc(F)c4c3=O)c2CO)cc(Nc2ccc(C(C)(C)O)cn2)c1=O [Example 37, 6-tert-Butyl-8-fluoro-2-(2-hydroxymethyl-3-{5-[5-(1-hydroxy-1-methyl-ethyl)-pyridin-2-ylamino]-1-methyl-6-oxo-1,6-dihydro-pyridin-3-yl}-phenyl)-2H-phthalazin-1-one] |
| 218 to 220 °C | Cn1cc(-c2cccc(-n3ncc4cc(C(C)(C)C)cc(F)c4c3=O)c2CO)cc(Nc2ccc(C(C)(C)C(=O)O)cn2)c1=O [Example 18, 2-(6-{5-[3-(6-tert-butyl-8-fluoro-1-oxo-1H-phthalazin-2-yl)-2-hydroxymethyl-phenyl]-1-methyl-2-oxo-1,2-dihydro-pyridin-3-ylamino}-pyridin-3-yl)-2-methyl-propionic acid] |
| 195 to 200 °C | CCNC(C)(C)c1ccc(Nc2cc(-c3cccc(-n4ncc5cc(C(C)(C)C)cc(F)c5c4=O)c3CO)cn(C)c2=O)nc1 [Example 260, 6-tert-Butyl-2-(3-{5-[5-(1-ethylamino-1-methyl-ethyl)-pyridin-2-ylamino]-1-methyl-6-oxo-1,6-dihydro-pyridin-3-yl}-2-hydroxymethyl-phenyl)-8-fluoro-2H-phthalazin-1-one] |
| 265 to 268 °C | CCNCc1ccc(Nc2cc(-c3cccc(-n4ncc5cc(C(C)(C)C)cc(F)c5c4=O)c3CO)cn(C)c2=O)nc1 [Example 29, 6-tert-Butyl-2-{3-[5-(5-ethylaminomethyl-pyridin-2-ylamino)-1-methyl-6-oxo-1,6-dihydro-pyridin-3-yl]-2-hydroxymethyl-phenyl}-8-fluoro-2H-phthalazin-1-one] |
| 235 to 238 °C | CN1CCN(Cc2ccc(Nc3cc(-c4cccc(-n5ncc6cc(C(C)(C)C)cc(F)c6c5=O)c4CO)cn(C)c3=O)nc2)CC1 [Example I-15, 6-tert-butyl-8-fluoro-2-(2-hydroxymethyl-3-{1-methyl-5-[5-(4-methyl-piperazin-1-ylmethyl)-pyridin-2-ylamino]-6-oxo-1,6-dihydro-pyridin-3-yl}-phenyl)-2H-phthalazin-1-one] |

test system: B cell receptor-mediated activation of B cells in human blood (CD69 expression); experiment: Inhibition of B cell activation in whole blood measured by CD69 expression; assay type: cell-based; conditions: anti-IgM stimulation, 20 h, 50% decrease of CD69-positive cells that are also CD20-positive
How it was run: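 Healthy-donor human whole blood (heparin) preincubated with compound (nine-point, three-fold dilutions) for 30 min at 37 °C, then stimulated with goat F(ab′)2 anti-human IgM (50 μg/ml final) for 20 h. CD69-positive B cells (CD20 gating) measured by flow cytometry as percent positive; IC50 from dose-response fit.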

| IC50 | SMILES |
| --- | --- |
| 7 nM | CN1CCN(Cc2ccc(Nc3cc(-c4cccc(-n5ncc6cc(C(C)(C)C)cc(F)c6c5=O)c4CO)cn(C)c3=O)nc2)CC1 [Example I-15, 6-tert-butyl-8-fluoro-2-(2-hydroxymethyl-3-{1-methyl-5-[5-(4-methyl-piperazin-1-ylmethyl)-pyridin-2-ylamino]-6-oxo-1,6-dihydro-pyridin-3-yl}-phenyl)-2H-phthalazin-1-one] |
| 14 nM | CN(C)C(=O)C(C)(C)c1ccc(Nc2cc(-c3cccc(-n4ncc5cc(C(C)(C)C)cc(F)c5c4=O)c3CO)cn(C)c2=O)nc1 [Example I-22, 2-(6-{5-[3-(6-tert-Butyl-8-fluoro-1-oxo-1H-phthalazin-2-yl)-2-hydroxymethyl-phenyl]-1-methyl-2-oxo-1,2-dihydro-pyridin-3-ylamino}-pyridin-3-yl)-N,N-dimethyl-isobutyramide] |
| 3 nM | CN1CCN(c2ccc(Nc3cc(-c4cccc(-n5ccc6cc(C(C)(C)O)cc(F)c6c5=O)c4CO)cn(C)c3=O)nc2)CC1 [Example I-59, 8-Fluoro-6-(1-hydroxy-1-methyl-ethyl)-2-(2-hydroxymethyl-3-{1-methyl-5-[5-(4-methyl-piperazin-1-yl)-pyridin-2-ylamino]-6-oxo-1,6-dihydro-pyridin-3-yl}-phenyl)-2H-isoquinolin-1-one] |
| 59 nM | CC(O)c1ccc(Nc2cc(-c3cccc(-n4ncc5cc(C(C)(C)C)cc(F)c5c4=O)c3CO)cn(C)c2=O)nc1 (centres unmarked) [Example I-36, 6-tert-Butyl-8-fluoro-2-(3-{5-[5-(1-hydroxy-ethyl)-pyridin-2-ylamino]-1-methyl-6-oxo-1,6-dihydro-pyridin-3-yl}-2-hydroxymethyl-phenyl)-2H-phthalazin-1-one] |
| 93 nM | Cn1cc(-c2cccc(-n3ccc4cc(C5CC5)cc(F)c4c3=O)c2CO)cc(Nc2ccc(OCCO)cn2)c1=O [Example I-79, 6-Cyclopropyl-8-fluoro-2-(3-{5-[5-(2-hydroxy-ethoxy)-pyridin-2-ylamino]-1-methyl-6-oxo-1,6-dihydro-pyridin-3-yl}-2-hydroxymethyl-phenyl)-2H-isoquinolin-1-one] |
| 101 nM | Cn1cc(-c2cccc(-n3ncc4cc(C(C)(C)C)cc(F)c4c3=O)c2CO)cc(Nc2ccc(CN3CCC(N)C3)cn2)c1=O (centres unmarked) [Example I-86, 2-(3-{5-[5-(3-Amino-pyrrolidin-1-ylmethyl)-pyridin-2-ylamino]-1-methyl-6-oxo-1,6-dihydro-pyridin-3-yl}-2-hydroxymethyl-phenyl)-6-tert-butyl-8-fluoro-2H-phthalazin-1-one] |
| 47 nM | CC(=O)NC(C)(C)c1ccc(Nc2cc(-c3cccc(-n4ncc5cc(C(C)(C)C)cc(F)c5c4=O)c3CO)cn(C)c2=O)nc1 [Example I-48, N-[1-(6-{5-[3-(6-tert-Butyl-8-fluoro-1-oxo-1H-phthalazin-2-yl)-2-hydroxymethyl-phenyl]-1-methyl-2-oxo-1,2-dihydro-pyridin-3-ylamino}-pyridin-3-yl)-1-methyl-ethyl]-acetamide] |
| 28 nM | Cn1cc(-c2cccc(-n3ncc4cc(C(C)(C)C)cc(F)c4c3=O)c2CO)cc(Nc2ccc(C(C)(C)N)cn2)c1=O [Example I-35, 2-(3-{5-[5-(1-Amino-1-methyl-ethyl)-pyridin-2-ylamino]-1-methyl-6-oxo-1,6-dihydro-pyridin-3-yl}-2-hydroxymethyl-phenyl)-6-tert-butyl-8-fluoro-2H-phthalazin-1-one] |
| 14 nM | Cn1cc(-c2cccc(-n3ncc4cc(C(C)(C)C)cc(F)c4c3=O)c2CO)cc(Nc2ccc(OCCO)cn2)c1=O [Example I-19] |
| 1 nM | Cn1cc(-c2cccc(-n3ncc4cc(C(C)(C)C)cc(F)c4c3=O)c2CO)cc(Nc2ccc(C(=O)N3CCOCC3)cn2)c1=O [Example I-9, 6-tert-Butyl-8-fluoro-2-(2-hydroxymethyl-3-{1-methyl-5-[5-(morpholine-4-carbonyl)-pyridin-2-ylamino]-6-oxo-1,6-dihydro-pyridin-3-yl}-phenyl)-2H-phthalazin-1-one] |
| 31 nM | Cn1cc(-c2cccc(-n3ccc4cc(C(C)(C)O)cc(F)c4c3=O)c2CO)nc(Nc2cnn(CC(F)F)c2)c1=O [Example I-80, 2-(3-{6-[1-(2,2-Difluoro-ethyl)-1H-pyrazol-4-ylamino]-4-methyl-5-oxo-4,5-dihydro-pyrazin-2-yl}-2-hydroxymethyl-phenyl)-8-fluoro-6-(1-hydroxy-1-methyl-ethyl)-2H-isoquinolin-1-one] |
| 12 nM | CN1CCN(C)C(c2ccc(Nc3nc(-c4cccc(-n5ncc6cc(C(C)(C)C)cc(F)c6c5=O)c4CO)cn(C)c3=O)cc2)C1=O (centres unmarked) [Example I-89, 6-tert-Butyl-2-(3-{6-[4-(1,4-dimethyl-3-oxo-piperazin-2-yl)-phenylamino]-4-methyl-5-oxo-4,5-dihydro-pyrazin-2-yl}-2-hydroxymethyl-phenyl)-8-fluoro-2H-phthalazin-1-one] |
| 48 nM | Cn1cc(-c2cccc(-n3ncc4cc(C(C)(C)C)cc(F)c4c3=O)c2CO)cc(Nc2ccc(C3CCNCC3)cn2)c1=O [Example I-16, 6-tert-Butyl-8-fluoro-2-{3-[5-(1′,2′,3′,4′,5′,6′-hexahydro-[3,4′]bipyridinyl-6-ylamino)-1-methyl-6-oxo-1,6-dihydro-pyridin-3-yl]-2-hydroxymethyl-phenyl}-2H-phthalazin-1-one] |
| 16 nM | CN1CCN(c2ccc(Nc3cc(-c4cccc(-n5ccc6cc(C7(C)CC7)cc(F)c6c5=O)c4CO)cn(C)c3=O)nc2)CC1 [Example I-55, 8-Fluoro-2-(2-hydroxymethyl-3-{1-methyl-5-[5-(4-methyl-piperazin-1-yl)-pyridin-2-ylamino]-6-oxo-1,6-dihydro-pyridin-3-yl}-phenyl)-6-(1-methyl-cyclopropyl)-2H-isoquinolin-1-one] |
| 24 nM | CN1CCN(Cc2ccc(Nc3cc(-c4cccc(-n5ccc6cc(C7CC7)cc(F)c6c5=O)c4CO)cn(C)c3=O)nc2)CC1 [Example I-73, 6-Cyclopropyl-8-fluoro-2-(2-hydroxymethyl-3-{1-methyl-5-[5-(4-methyl-piperazin-1-ylmethyl)-pyridin-2-ylamino]-6-oxo-1,6-dihydro-pyridin-3-yl}-phenyl)-2H-isoquinolin-1-one] |
| 11 nM | Cn1cc(-c2cccc(-n3ncc4cc(C(C)(C)C)cc(F)c4c3=O)c2CO)cc(Nc2ccc(S(C)(=O)=O)cn2)c1=O [Example I-18, 6-tert-Butyl-8-fluoro-2-{2-hydroxymethyl-3-[5-(5-methanesulfonyl-pyridin-2-ylamino)-1-methyl-6-oxo-1,6-dihydro-pyridin-3-yl]-phenyl}-2H-phthalazin-1-one] |
| 9 nM | CNCCOc1ccc(Nc2cc(-c3cccc(-n4ncc5cc(C(C)(C)C)cc(F)c5c4=O)c3CO)cn(C)c2=O)nc1 [Example I-88, 6-tert-Butyl-8-fluoro-2-(2-hydroxymethyl-3-{1-methyl-5-[5-(2-methylamino-ethoxy)-pyridin-2-ylamino]-6-oxo-1,6-dihydro-pyridin-3-yl}-phenyl)-2H-phthalazin-1-one] |
